How the values were obtained:
Assay type in all cases: functional
UO-31 = assay: Growth inhibition of human UO31 cells assessed as cell growth at 3X10'-8 M after 48 hrs by sulforhodamine B assay; conditions: UO-31, 48 h, read-out: Activity
OVCAR-5 [1] = assay: Growth inhibition of human OVCAR5 cells assessed as cell growth at 3X10'-9 M after 48 hrs by sulforhodamine B assay; conditions: OVCAR-5, 48 h, read-out: Activity
DU-145 [2] = assay: Growth inhibition of human DU145 cells assessed as cell growth at 3X10'-6 M after 48 hrs by sulforhodamine B assay; conditions: DU-145, 48 h, read-out: Activity
OVCAR-5 [3] = assay: Growth inhibition of human OVCAR5 cells assessed as cell growth at 3X10'-7 M after 48 hrs by sulforhodamine B assay; conditions: OVCAR-5, 48 h, read-out: Activity
DU-145 [4] = assay: Growth inhibition of human DU145 cells assessed as cell growth at 3X10'-8 M after 48 hrs by sulforhodamine B assay; conditions: DU-145, 48 h, read-out: Activity
NCI-H322M = assay: Growth inhibition of human NCI-H322M cells assessed as cell growth at 3X10'-5 M after 48 hrs by sulforhodamine B assay; conditions: read-out: Activity
UACC-62 = assay: Growth inhibition of human UACC62 cells assessed as cell growth at 3X10'-5 M after 48 hrs by sulforhodamine B assay; conditions: UACC-62, 48 h, read-out: Activity
OVCAR-4 [5] = assay: Growth inhibition of human OVCAR4 cells assessed as cell growth at 3X10'-6 M after 48 hrs by sulforhodamine B assay; conditions: OVCAR-4, 48 h, read-out: Activity
K562 = assay: Growth inhibition of human K562 cells assessed as cell growth at 3X10'-9 M after 48 hrs by sulforhodamine B assay; conditions: K562, 48 h, read-out: Activity
HOP-62 = assay: Growth inhibition of human HOP62 cells assessed as cell growth at 3X10'-9 M after 48 hrs by sulforhodamine B assay; conditions: HOP-62, 48 h, read-out: Activity
HCT-116 [6] = assay: Growth inhibition of human HCT116 cells assessed as cell growth at 3X10'-5 M after 48 hrs by sulforhodamine B assay; conditions: HCT-116, 48 h, read-out: Activity
MOLT-4 [7] = assay: Growth inhibition of human MOLT4 cells assessed as cell growth at 3X10'-9 M after 48 hrs by sulforhodamine B assay; conditions: MOLT-4, 48 h, read-out: Activity
OVCAR-4 [8] = assay: Growth inhibition of human OVCAR4 cells assessed as cell growth at 3X10'-7 M after 48 hrs by sulforhodamine B assay; conditions: OVCAR-4, 48 h, read-out: Activity
CAKI-1 [9] = assay: Growth inhibition of human CAKI-1 cells assessed as cell growth at 3X10'-9 M after 48 hrs by sulforhodamine B assay; conditions: CAKI-1, 48 h, read-out: Activity
DU-145 [10] = assay: Growth inhibition of human DU145 cells assessed as cell growth at 3X10'-9 M after 48 hrs by sulforhodamine B assay; conditions: DU-145, 48 h, read-out: Activity
[11] = Growth inhibition of human NCI-ADR-RES cells assessed as cell growth at 3X10'-6 M after 48 hrs by sulforhodamine B assay; conditions: read-out: Activity
NCI-H226 = assay: Growth inhibition of human NCI-H226 cells assessed as cell growth at 3X10'-8 M after 48 hrs by sulforhodamine B assay; conditions: NCI-H226, 48 h, read-out: Activity
NCI-H522 = assay: Growth inhibition of human NCI-H522 cells assessed as cell growth at 3X10'-8 M after 48 hrs by sulforhodamine B assay; conditions: NCI-H522, 48 h, read-out: Activity
BT-549 [12] = assay: Growth inhibition of human BT549 cells assessed as cell growth at 3X10'-7 M after 48 hrs by sulforhodamine B assay; conditions: BT-549, 48 h, read-out: Activity
HT-29 [13] = assay: Growth inhibition of human HT-29 cells assessed as cell growth at 3X10'-5 M after 48 hrs by sulforhodamine B assay; conditions: HT-29, 48 h, read-out: Activity
MOLT-4 [14] = assay: Growth inhibition of human MOLT4 cells assessed as cell growth at 3X10'-5 M after 48 hrs by sulforhodamine B assay; conditions: MOLT-4, 48 h, read-out: Activity
BT-549 [15] = assay: Growth inhibition of human BT549 cells assessed as cell growth at 3X10'-5 M after 48 hrs by sulforhodamine B assay; conditions: BT-549, 48 h, read-out: Activity
HL-60(TB) = assay: Growth inhibition of human HL-60(TB) cells assessed as cell growth at 3X10'-8 M after 48 hrs by sulforhodamine B assay; conditions: HL-60, 48 h, read-out: Activity
T47D = assay: Growth inhibition of human T47D cells assessed as cell growth at 3X10'-9 M after 48 hrs by sulforhodamine B assay; conditions: read-out: Activity
SK-MEL-5 = assay: Growth inhibition of human SK-MEL-5 cells assessed as cell growth at 3X10'-8 M after 48 hrs by sulforhodamine B assay; conditions: SK-MEL-5, 48 h, read-out: Activity
SNB-19 = assay: Growth inhibition of human SNB19 cells assessed as cell growth at 3X10'-7 M after 48 hrs by sulforhodamine B assay; conditions: SNB-19, 48 h, read-out: Activity
M14 = assay: Growth inhibition of human M14 cells assessed as cell growth at 3X10'-6 M after 48 hrs by sulforhodamine B assay; conditions: M14, 48 h, read-out: Activity
SR = assay: Growth inhibition of human SR cells assessed as cell growth at 3X10'-8 M after 48 hrs by sulforhodamine B assay; conditions: read-out: Activity
HOP-92 = assay: Growth inhibition of human HOP92 cells assessed as cell growth at 3X10'-9 M after 48 hrs by sulforhodamine B assay; conditions: HOP-92, 48 h, read-out: Activity
CAKI-1 [16] = assay: Growth inhibition of human CAKI-1 cells assessed as cell growth at 3X10'-5 M after 48 hrs by sulforhodamine B assay; conditions: CAKI-1, 48 h, read-out: Activity
NCI-H460 = assay: Growth inhibition of human NCI-H460 cells assessed as cell growth at 3X10'-5 M after 48 hrs by sulforhodamine B assay; conditions: NCI-H460, 48 h, read-out: Activity
HT-29 [17] = assay: Growth inhibition of human HT-29 cells assessed as cell growth at 3X10'-6 M after 48 hrs by sulforhodamine B assay; conditions: HT-29, 48 h, read-out: Activity
PC-3 = assay: Growth inhibition of human PC3 cells assessed as cell growth at 3X10'-5 M after 48 hrs by sulforhodamine B assay; conditions: PC-3, 48 h, read-out: Activity
HCT-116 [18] = assay: Growth inhibition of human HCT116 cells assessed as cell growth at 3X10'-6 M after 48 hrs by sulforhodamine B assay; conditions: HCT-116, 48 h, read-out: Activity
OVCAR-3 = assay: Growth inhibition of human OVCAR3 cells assessed as cell growth at 3X10'-8 M after 48 hrs by sulforhodamine B assay; conditions: OVCAR-3, 48 h, read-out: Activity
U-251 = assay: Growth inhibition of human U251 cells assessed as cell growth at 3X10'-8 M after 48 hrs by sulforhodamine B assay; conditions: U-251, 48 h, read-out: Activity

## O=C(Nc1cccc(-n2cc(-c3ccncc3)c(-c3ccc(Cl)c(O)c3)n2)c1)Nc1cccc(C(F)(F)F)c1
UO-31
  growth at 0.03 µM: 85%
OVCAR-5 [1]
  growth at 0.003 µM: 95%
DU-145 [2]
  growth at 3 µM: 33%
OVCAR-5 [3]
  growth at 0.3 µM: 105%
DU-145 [4]
  growth at 0.03 µM: 99%
NCI-H322M
  growth at 30 µM: 19%
UACC-62
  growth at 30 µM: -67%
OVCAR-4 [5]
  growth at 3 µM: 49%
K562
  growth at 0.003 µM: 94%
HOP-62
  growth at 0.003 µM: 97%
HCT-116 [6]
  growth at 30 µM: -34%
MOLT-4 [7]
  growth at 0.003 µM: 97%
OVCAR-4 [8]
  growth at 0.3 µM: 108%
CAKI-1 [9]
  growth at 0.003 µM: 98%
DU-145 [10]
  growth at 0.003 µM: 101%
[11]
  growth at 3 µM: 39%
NCI-H226
  growth at 0.03 µM: 100%
NCI-H522
  growth at 0.03 µM: 90%
BT-549 [12]
  growth at 0.3 µM: 102%
HT-29 [13]
  growth at 30 µM: 1%
MOLT-4 [14]
  growth at 30 µM: 8%
BT-549 [15]
  growth at 30 µM: -18%
HL-60(TB)
  growth at 0.03 µM: 94%
T47D
  growth at 0.003 µM: 92%
SK-MEL-5
  growth at 0.03 µM: 98%
SNB-19
  growth at 0.3 µM: 96%
M14
  growth at 3 µM: 21%
SR
  growth at 0.03 µM: 99%
HOP-92
  growth at 0.003 µM: 85%
CAKI-1 [16]
  growth at 30 µM: 2%
NCI-H460
  growth at 30 µM: -1%
HT-29 [17]
  growth at 3 µM: 96%
PC-3
  growth at 30 µM: -3%
HCT-116 [18]
  growth at 3 µM: 23%
OVCAR-3
  growth at 0.03 µM: 93%
U-251
  growth at 0.03 µM: 100%

## COc1cc(-c2nn(-c3cccc(NC(=O)Nc4ccc(Cl)c(C(F)(F)F)c4)c3)cc2-c2ccncc2)ccc1Cl
UO-31
  growth at 0.03 µM: 89%
OVCAR-5 [1]
  growth at 0.003 µM: 99%
DU-145 [2]
  growth at 3 µM: 23%
OVCAR-5 [3]
  growth at 0.3 µM: 89%
DU-145 [4]
  growth at 0.03 µM: 105%
NCI-H322M
  growth at 30 µM: -17%
UACC-62
  growth at 30 µM: -73%
OVCAR-4 [5]
  growth at 3 µM: 19%
K562
  growth at 0.003 µM: 110%
HOP-62
  growth at 0.003 µM: 95%
HCT-116 [6]
  growth at 30 µM: -63%
MOLT-4 [7]
  growth at 0.003 µM: 104%
OVCAR-4 [8]
  growth at 0.3 µM: 96%
CAKI-1 [9]
  growth at 0.003 µM: 92%
DU-145 [10]
  growth at 0.003 µM: 102%
[11]
  growth at 3 µM: 3%
NCI-H226
  growth at 0.03 µM: 92%
NCI-H522
  growth at 0.03 µM: 104%
BT-549 [12]
  growth at 0.3 µM: 109%
HT-29 [13]
  growth at 30 µM: -63%
MOLT-4 [14]
  growth at 30 µM: -15%
BT-549 [15]
  growth at 30 µM: -41%
HL-60(TB)
  growth at 0.03 µM: 103%
T47D
  growth at 0.003 µM: 101%
SK-MEL-5
  growth at 0.03 µM: 91%
SNB-19
  growth at 0.3 µM: 94%
M14
  growth at 3 µM: 4%
SR
  growth at 0.03 µM: 107%
HOP-92
  growth at 0.003 µM: 68%
CAKI-1 [16]
  growth at 30 µM: -20%
NCI-H460
  growth at 30 µM: -28%
HT-29 [17]
  growth at 3 µM: 10%
PC-3
  growth at 30 µM: -20%
HCT-116 [18]
  growth at 3 µM: 11%
OVCAR-3
  growth at 0.03 µM: 109%
U-251
  growth at 0.03 µM: 94%

## O=C(Nc1cccc(-n2cc(-c3ccncc3)c(-c3ccc(Cl)c(O)c3)n2)c1)Nc1ccc(Cl)c(C(F)(F)F)c1
UO-31
  growth at 0.03 µM: 95%
OVCAR-5 [1]
  growth at 0.003 µM: 93%
DU-145 [2]
  growth at 3 µM: 10%
OVCAR-5 [3]
  growth at 0.3 µM: 88%
DU-145 [4]
  growth at 0.03 µM: 105%
NCI-H322M
  growth at 30 µM: -58%
UACC-62
  growth at 30 µM: -83%
OVCAR-4 [5]
  growth at 3 µM: 17%
K562
  growth at 0.003 µM: 99%
HOP-62
  growth at 0.003 µM: 97%
HCT-116 [6]
  growth at 30 µM: -43%
MOLT-4 [7]
  growth at 0.003 µM: 110%
OVCAR-4 [8]
  growth at 0.3 µM: 94%
CAKI-1 [9]
  growth at 0.003 µM: 89%
DU-145 [10]
  growth at 0.003 µM: 101%
[11]
  growth at 3 µM: -7%
NCI-H226
  growth at 0.03 µM: 86%
NCI-H522
  growth at 0.03 µM: 101%
BT-549 [12]
  growth at 0.3 µM: 104%
HT-29 [13]
  growth at 30 µM: -63%
MOLT-4 [14]
  growth at 30 µM: -32%
BT-549 [15]
  growth at 30 µM: -19%
HL-60(TB)
  growth at 0.03 µM: 116%
T47D
  growth at 0.003 µM: 102%
SK-MEL-5
  growth at 0.03 µM: 94%
SNB-19
  growth at 0.3 µM: 98%
M14
  growth at 3 µM: -7%
SR
  growth at 0.03 µM: 104%
HOP-92
  growth at 0.003 µM: 79%
CAKI-1 [16]
  growth at 30 µM: -25%
NCI-H460
  growth at 30 µM: -41%
HT-29 [17]
  growth at 3 µM: 21%
PC-3
  growth at 30 µM: -19%
HCT-116 [18]
  growth at 3 µM: 4%
OVCAR-3
  growth at 0.03 µM: 113%
U-251
  growth at 0.03 µM: 96%

Source: ChEMBL document CHEMBL2440076, “New triarylpyrazoles as broad-spectrum anticancer agents: design, synthesis, and biological evaluation” (Eur J Med Chem, 2013)
